# Test results as given in patent publication US11285160B2, “Pharmaceutical composition and method for treatment of non-alcoholic fatty liver disease” (MITSUBISHI TANABE PHARMA CORPORATION, priority 2016, dated 2022).
# Legend:
# CDAA diet-loaded rats = assay: Hepatic fibrosis development in NASH animal model (CDAA diet-loaded rat), repeated oral administration for 10 weeks; assay type: in vivo, F344 rats; settings: for Sirius red positive areas (%) (mean ± S.E.): primary endpoint; for Fibrosis development score (mean ± S.E.): score 0-4 (Table 3), secondary endpoint
# Description: Some heads of F344 rats (5-week-old, body weight 67.5 to 87.5 g, purchased from Japan SLC, Inc.) were housed (for quarantine inspection and acclimatization) for 15 days while receiving a normal diet, and were then used as a test animal. The rats were divided into six treatment groups by stratified random allocation using body weight as a randomization factor (each 10 heads of the rats per group). The test compounds (that is, the compound (I) or eplerenone) were suspended into 0.5% aqueous carmellose sodium solution containing a vehicle (0.1% polyoxyethylene hydrogenated castor oil (HCO-60, manufactured by Nikko Chemicals Co., Ltd.)), and the resultant suspensions were used (10 mL/kg). The rats were loaded with a CDAA diet (choline deficient L-amino acid defined diet), and simultaneously with the loading, were received with a repeated oral administration of the above-mentioned compound (I) (1 mg/kg, 3 mg/kg, and 10 mg/kg) at once per day for 10 weeks (hereinafter, which is referred to as “Compound (I)-treated group”). Also, the rats that were loaded with the CDAA diet and were received with the administration of the above-mentioned vehicle (10 mL/kg) were assigned to “disease control group”, and also the rats that were loaded with the CSAA diet and were received with the administration of the above-mentioned vehicle (10 mL/kg) were assigned to “normal control group”. While, “positive control group” rats were loaded with the CDAA diet and were received with a repeated oral administration of eplerenone (100 mg/kg) at once per day for 10 weeks.
# After the administration, the test tissues were sampled from lamella of the extracted liver, and the pathological specimens were constructed. Each effect of the respective test compound on NASH was examined using the Sirius red positive areas of the specimens as a primary endpoint. Also the fibrosis development scores of hepatic pathological specimens in each group were examined as the secondary endpoint.
# [1] = system: UGT enzymes (Uridine diphosphate glucuronosyltransferase); assay: Main metabolic pathway of compound (I); assay type: in vitro ADME; settings: estimated
# [2] = biological target: CYP3A4 (cytochrome P450 3A4) (Homo sapiens, UniProt P08684); settings: Non-Patent documents 12 and 13; cited from earlier work
# Sequence of CYP3A4 (cytochrome P450 3A4) (P08684 whole entry): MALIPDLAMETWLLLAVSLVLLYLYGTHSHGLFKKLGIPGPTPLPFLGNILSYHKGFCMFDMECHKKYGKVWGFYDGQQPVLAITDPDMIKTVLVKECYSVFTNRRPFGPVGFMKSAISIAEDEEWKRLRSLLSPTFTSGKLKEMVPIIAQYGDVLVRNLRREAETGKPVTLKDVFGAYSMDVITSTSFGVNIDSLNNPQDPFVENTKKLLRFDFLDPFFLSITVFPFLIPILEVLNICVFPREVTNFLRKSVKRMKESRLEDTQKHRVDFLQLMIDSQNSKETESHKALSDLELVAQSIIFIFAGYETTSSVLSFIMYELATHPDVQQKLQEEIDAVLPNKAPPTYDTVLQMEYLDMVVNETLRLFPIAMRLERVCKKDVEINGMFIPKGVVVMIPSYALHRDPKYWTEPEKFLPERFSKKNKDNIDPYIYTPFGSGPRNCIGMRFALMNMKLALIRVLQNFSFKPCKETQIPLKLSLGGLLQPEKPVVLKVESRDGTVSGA
# [3] = background statement; cited from earlier work
# [4] = CDAA diet-loaded rats, 1 mg/kg oral once per day for 10 weeks
# [5] = CDAA diet-loaded rats, 3 mg/kg oral once per day for 10 weeks
# [6] = CDAA diet-loaded rats, 10 mg/kg oral once per day for 10 weeks
# [7] = CDAA diet-loaded rats, 100 mg/kg oral once per day for 10 weeks
structure (smiles),measurement,setting,value
CC1(C)Oc2cc(NS(C)(=O)=O)ccc2N(c2ccc(F)cc2)C1=O [Compound (I)],Sirius red positive areas as compared with disease control group,"CDAA diet-loaded rats; 1 mg/kg, 3 mg/kg and 10 mg/kg-treated groups, all",significantly lower
same,Fibrosis development scores as compared with disease control group,CDAA diet-loaded rats; 3 mg/kg-treated group and 10 mg/kg-treated group,significantly lower value
same,Sirius red positive areas (%) (mean ± S.E.),CDAA diet-loaded rats; [4],4.0 ± 0.3 %
same,Fibrosis development score (mean ± S.E.),CDAA diet-loaded rats; [4],3.0 ± 0.0
same,Sirius red positive areas (%) (mean ± S.E.),CDAA diet-loaded rats; [5],3.6 ± 0.4 %
same,Fibrosis development score (mean ± S.E.),CDAA diet-loaded rats; [5],2.7 ± 0.2
same,Sirius red positive areas (%) (mean ± S.E.),CDAA diet-loaded rats; [6],1.8 ± 0.2 %
same,Fibrosis development score (mean ± S.E.),CDAA diet-loaded rats; [6],2.2 ± 0.1
same,Progression of fibrosis development of liver,"CDAA diet-loaded rats; CDAA diet-loaded rats, overall conclusion",significantly inhibit
same,Sirius red positive area value at the lowest dose in comparison with eplerenone at a higher dose,CDAA diet-loaded rats; compound (I) lowest dose (1 mg/kg) vs eplerenone 100 mg/kg,significantly lower area value
same,Main metabolic pathway,[1],glucuronide conjugation by UGT enzymes
"COC(=O)[C@@H]1CC2=CC(=O)CC[C@]2(C)[C@@]23O[C@@H]2C[C@@]2(C)[C@@H](CC[C@@]24CCC(=O)O4)[C@H]13 [Eplerenone, eplerenone, reference compound]",Fibrosis development scores as compared with disease control group,"CDAA diet-loaded rats; 100 mg/kg, positive control group",not significantly different
same,Sirius red positive areas (%) (mean ± S.E.),CDAA diet-loaded rats; [7],2.8 ± 0.2 %
same,Fibrosis development score (mean ± S.E.),CDAA diet-loaded rats; [7],3.0 ± 0.0
same,Metabolizing enzyme,[2],metabolized mainly by CYP3A4
same,Half-life in blood,[3],short half-life
